This is an account of results in patent US12428378B2, “Methods and materials for increasing level of phosphorylated AMPK protein” (University of Pittsburgh—Of the Commonwealth System of …, priority 2019, dated 2025).

The test system of data set [1] is pAMPK. The experiment in a line: pAMPK immunostaining chemiluminescence assay in Beas2B cells. Type of data set: cell-based. The note with it: Homo sapiens, BEAS-2B, 18 h, DMEM no glucose media, compounds 3-34, 36-44, 47-60 tested as HCl salts, read-out: efficacy (minimal compound concentration needed to increase pAMPK by 30%).
The nature of data set [2]: Plasma exposure and PK of compound 63 in mouse plasma (HPLC-MS/MS). Type of data set: in vivo.
The test system of data set [3] is methicillin resistant Staphylococcus aureus (strain ATCC 33591). The experiment in a line: Antimicrobial efficacy against MRSA lung infection in neutropenic BALB/c mice. Type of data set: in vivo. The note with it: 25 mg/kg orally once a day, days -4 to 0; lungs 24 hours after inoculation; p<0.01 compared to vehicle. As for the experimental part:
Groups of 5-10 female BALB/c mice weighing 20±2 g were used in this study. Animals were rendered immune suppressed by treatment with 250 mg/kg of cyclophosphamide IP at 4 and 2 days before infection (Day −4 and −2). Vehicle 10% DMA (N,N-dimethylacetamide):40% PEG300:50% H2O) and/or test substances were administered on days −4, −3, −2, −1 and 0.
On day 0, immediately following the final dose, animals were inoculated intranasally (0.02 mL/lung) with 1-5×10^6 colony forming units (CFU)/mouse of MRSA (ATCC 33591) after being anaesthetized by etomidate (20 mg/kg dose, IV). In addition, following the final dose, blood was collected at 0, 0.5 h, 1 h, 2 h, 4 h and 24 h from three animals of each group, via facial veins. Terminal blood samples were taken by cardiac puncture. Blood samples were drawn into K2EDTA anti-coagulant coated mini collection tubes. The blood was collected from group 1 after sacrifice as the blank for PK analysis. Samples were stored on ice for no more than one hour then centrifuged at 2500×g for 15 min at 4° C. Plasma (˜50 μL) was stored at −80° C. until analysis.
At 24 hours after inoculation, the animals were humanely euthanized with CO2 asphyxiation, and the lung tissue was harvested from each of the test animals. The tissues were homogenized in 1 mL of PBS. […]

Molecules are shown by their SMILES. Values joined by “and” are separate entries in the source; they are usually repeats but may differ in a detail not shown here. Equal values may be shown once. Read-outs that look alike come from different tables or passages of the source. Some results are limits rather than exact numbers.

Regarding `Cc1ccccc1CN(CCCOc1ccc(C(F)(F)F)cc1)Cc1cccnc1` [compound 63], in data set [1], the EC (30% increase) was at most 1 µM. Moreover, the “Sample concentration, individual animals” value in data set [2] (25 mg/kg PO QD x 5, time 0 h, 25 mg/kg) was 3 ng/mL and 0 ng/mL (2×); in data set [2] (25 mg/kg PO QD x 5, time 0.5 h, 25 mg/kg), 180 ng/mL and 243 ng/mL and 390 ng/mL; in data set [2] (25 mg/kg PO QD x 5, time 1 h, 25 mg/kg), 95 ng/mL and 120 ng/mL; in data set [2] (25 mg/kg PO QD x 5, time 2 h, 25 mg/kg), 16 ng/mL and 36 ng/mL and 31 ng/mL; in data set [2] (25 mg/kg PO QD x 5, time 4 h, 25 mg/kg) it was 22 ng/mL and 38 ng/mL and 18 ng/mL; in data set [2] (25 mg/kg PO QD x 5, time 24 h, 25 mg/kg), 7 ng/mL and 0 ng/mL and 3 ng/mL. Moreover, the area under the curve AUC(0-inf) in data set [2] (BALB/c, dose PO 25 mg/kg) stood at 622 ng·h/mL. Moreover, the area under the curve AUC(0-t) in data set [2] (BALB/c, dose PO 25 mg/kg) was found to be 593 ng·h/mL. Further, the highest level in data set [2] (BALB/c, dose PO 25 mg/kg) (Cmax) was 271 ng/mL. In addition, the Tmax in data set [2] (BALB/c, dose PO 25 mg/kg) was 30 min. Besides, in data set [2] (BALB/c, mouse, plasma, po, 25 mg/kg, 25 mg/kg PO QD x 5, time 0 h, excluded from the PK calculation, read-out: Sample concentration, mean), the concentration at 0 h was 1 ng/mL. Also, the concentration at 0.5 h in data set [2] (BALB/c, mouse, plasma, po, 25 mg/kg, 25 mg/kg PO QD x 5, time 0.5 h, read-out: Sample concentration, mean) is 271 ng/mL. The concentration at 1 h was found to be 184 ng/mL in data set [2] (BALB/c, mouse, plasma, po, 25 mg/kg, 25 mg/kg PO QD x 5, time 1 h, read-out: Sample concentration, individual animals) and 133 ng/mL in data set [2] (BALB/c, mouse, plasma, po, 25 mg/kg, 25 mg/kg PO QD x 5, time 1 h, read-out: Sample concentration, mean). For the same compound, the concentration at 2 h in data set [2] (BALB/c, mouse, plasma, po, 25 mg/kg, 25 mg/kg PO QD x 5, time 2 h, read-out: Sample concentration, mean) worked out at 28 ng/mL. For the same compound, in data set [2] (BALB/c, mouse, plasma, po, 25 mg/kg, 25 mg/kg PO QD x 5, time 4 h, read-out: Sample concentration, mean), the concentration at 4 h came to 26 ng/mL. Besides, the concentration at 24 h in data set [2] (BALB/c, mouse, plasma, po, 25 mg/kg, 25 mg/kg PO QD x 5, time 24 h, read-out: Sample concentration, mean) came to 3 ng/mL. In addition, the AUC/D in data set [2] (dose PO 25 mg/kg) was 25 kg·ng·h/mL/mg. Further, the AUCExtr in data set [2] (dose PO 25 mg/kg) came to 5%. The MTR in data set [2] (dose PO 25 mg/kg) was 4.96 h. The “clearance of MRSA from the lung (CFU)” value in data set [3] is recorded as “cleared MRSA from the lung”.

As usually defined, the AUC(0-inf) is total exposure, with the tail of the curve extrapolated. The AUC(0-t) is exposure summed from dosing to a finite time, without extrapolation to infinity. Lower therefore signals low exposure. Usually Cmax stands for the highest concentration seen after dosing. The Tmax is the time from dosing to the highest level.
